Test results as given in PMC12472512, “Design, Synthesis, In Silico Docking, Multitarget Bioevaluation and Molecular Dynamic Simulation of Novel Pyrazolo[3,4-d]Pyrimidinone Derivatives as Potential In Vitro and In Vivo Anti-Inflammatory Agents” (Pharmaceuticals, 2025).
Entries after “also recorded” stand apart in the source; their conditions may differ.

Assays:
[1] = test system: carrageenan-induced paw edema; assay: In vivo carrageenan-induced paw edema; conditions: 50 mg/kg oral, mice
gastric mucosa = assay: Histopathological examination of stomach sections (H&E)
COX-1 = biological target: T1, COX-1 (Ovis aries, UniProt P05979); assay: In vitro COX-1 inhibition, fluorescent inhibitor screening assay kit; conditions: for inhibitory activity on COX-1: at a concentration of 100 μM
T1 sequence (P05979 25-600): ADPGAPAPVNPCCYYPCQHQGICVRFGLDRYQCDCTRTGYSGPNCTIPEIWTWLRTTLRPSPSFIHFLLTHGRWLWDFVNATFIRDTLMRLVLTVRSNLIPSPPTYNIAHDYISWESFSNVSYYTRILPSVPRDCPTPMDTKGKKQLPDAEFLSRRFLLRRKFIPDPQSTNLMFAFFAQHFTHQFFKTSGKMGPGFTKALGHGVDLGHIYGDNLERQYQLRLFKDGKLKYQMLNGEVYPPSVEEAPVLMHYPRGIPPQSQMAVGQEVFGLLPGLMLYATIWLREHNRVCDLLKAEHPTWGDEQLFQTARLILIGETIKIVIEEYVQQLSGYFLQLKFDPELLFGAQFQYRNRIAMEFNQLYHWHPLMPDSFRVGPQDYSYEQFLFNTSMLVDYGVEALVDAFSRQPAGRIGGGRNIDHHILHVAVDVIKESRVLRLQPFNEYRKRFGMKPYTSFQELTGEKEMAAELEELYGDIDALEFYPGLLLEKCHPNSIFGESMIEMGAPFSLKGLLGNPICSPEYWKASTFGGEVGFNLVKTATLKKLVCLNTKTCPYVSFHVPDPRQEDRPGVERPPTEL
Procedure: (§2) Test compounds, dissolved in DMSO, and were pre-incubated with the enzymes at 37 °C for 5 min before initiating the reaction with 1 mM arachidonic acid under light-protected conditions. The fluorescence was measured using a multi-well spectrophotometer (fluorescence plate reader). […] The percentage inhibition was calculated by comparing the absorbance values of the compounds to the vehicle control.
(§3) This protocol utilizes a colorimetric assay to measure the peroxidase activity of Prostaglandin G/H
(§4) Synthase (COX enzyme). The COX enzyme converts Arachidonic Acid (AA) to Prostaglandin G2
(§5) (PGG2), which is then reduced to Prostaglandin H2 (PGH2) by the inherent peroxidase activity.
(§6) peroxidase reaction co-oxidizes a chromogen, such as N,N,N',N'-Tetramethyl-p-phenylenediamine
(§7) (TMPD), resulting in a colored product that can be measured spectrophotometrically at 590-630 nm.
(§8) inhibition of COX enzyme by a test compound reduces the formation of this colored product, allowing
(§9) for the calculation of percentage inhibition and subsequent IC50 values.
(§10) o Ovine COX-1 (purified, commercially available)
(§11) • Substrate: Arachidonic Acid (AA). Prepare a stock solution in ethanol. Note: AA is unstable;
(§12) aliquot and store under inert gas (e.g., Argon) at -80°C.
(§13) • Cofactor: Hemin. Prepare a stock solution in DMSO.
(§14) • Chromogen: N,N,N',N'-Tetramethyl-p-phenylenediamine (TMPD) dihydrochloride.
(§15) • Assay Buffer: 100 mM Tris-HCl buffer, pH 8.0. May contain 1-5 mM EDTA and 1-2 µM
Phenol (acts as a cofactor for COX-2).
(§16) • Solvents: Dimethyl Sulfoxide (DMSO), Ethanol (absolute).
(§17) consistent across all wells (typically ≤1% final concentration).
o Keep all dilutions on ice.
(§18) o COX-1 Working Solution: Dilute ovine COX-1 in ice-cold assay buffer to a final
(§19) concentration of ~50-100 U/mL. Add Hemin to a final concentration of 1 µM.
(§20) o Note: The exact enzyme units (U) required must be determined by a preliminary activity
(§21) test to ensure the reaction is linear and within the dynamic range of the assay.
(§22) Substrate/Chromogen Solution (Prepare Fresh):
(§23) o To a tube containing assay buffer, add TMPD to a final concentration of 0.2-0.5 mM.
(§24) o Add Arachidonic Acid to a final concentration of 100 µM. Vortex gently.
(§25) o Keep this solution protected from light and on ice until use.
(§26) Assay Setup (Performed in duplicate or triplicate)

human recombinant COX-2 = biological target: T2, human recombinant COX-2 (Homo sapiens, UniProt P35354); assay: In vitro COX-2 inhibition, fluorescent inhibitor screening assay kit; conditions: for inhibitory activity on COX-2: at a concentration of 100 μM
T2 sequence (P35354 18-604): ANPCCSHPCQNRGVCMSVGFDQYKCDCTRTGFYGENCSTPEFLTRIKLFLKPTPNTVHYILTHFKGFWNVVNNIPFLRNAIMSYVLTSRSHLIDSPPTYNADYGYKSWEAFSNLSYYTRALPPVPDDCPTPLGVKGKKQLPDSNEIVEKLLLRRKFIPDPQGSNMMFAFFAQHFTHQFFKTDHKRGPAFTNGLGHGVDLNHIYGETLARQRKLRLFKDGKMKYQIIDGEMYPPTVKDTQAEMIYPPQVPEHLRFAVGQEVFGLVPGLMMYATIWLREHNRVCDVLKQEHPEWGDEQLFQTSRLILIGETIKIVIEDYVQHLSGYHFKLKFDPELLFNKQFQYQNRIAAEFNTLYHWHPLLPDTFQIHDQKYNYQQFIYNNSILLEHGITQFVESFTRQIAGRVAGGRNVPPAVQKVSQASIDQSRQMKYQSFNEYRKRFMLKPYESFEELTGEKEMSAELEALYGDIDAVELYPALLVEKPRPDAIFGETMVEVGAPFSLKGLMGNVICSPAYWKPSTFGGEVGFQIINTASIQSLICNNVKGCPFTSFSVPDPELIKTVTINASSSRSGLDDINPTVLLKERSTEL
Procedure: as §2, §3, §4, §5, §6, §7, §8, §9, §10, §11, §12, §13, §14, §15
Phenol (acts as a cofactor for COX-2).
as §16, §17
o Keep all dilutions on ice.
as §18, §19, §20, §21, §22, §23, §24, §25, §26

TNF-α = assay: ELISA of serum TNF-α in carrageenan-treated mice; format: in vivo; conditions: 50 mg/kg; carrageenan-treated mice at 3 h; compared to the control group
Procedure: To evaluate the anti-inflammatory mechanisms of these compounds, two key chemical mediators, TNF-α and IL-6, were assessed using enzyme-linked immunosorbent assay (ELISA).
(§1) All mice were sacrificed under anesthesia using ketamine/xylazine (50/15 mg/kg). Blood was collected for the ELISA assays to determine the levels of cytokines TNF-α and IL-6 using the Rat IL6 (Interleukin 6) ELISA Kit and Rat TNFα ELISA Kit (MyBioSource, San Diego, CA, USA), in accordance with the manufacturer’s instructions. The quantitative sandwich enzyme immunoassay technique is the fundamental principle of the TNF-α assay. A microplate was pre-coated with an antibody specific for TNF-α. Standards and samples were pipetted into the wells, and the immobilized antibody bound to any TNF-α that was present. A biotin-conjugated antibody that was specific for TNF-α was introduced to the wells after any unbound substances were removed. Horseradish peroxidase (HRP) conjugated with avidin was introduced to the wells subsequent to the cleaning process. After a wash to eliminate any unbound avidin–enzyme reagent, a substrate solution was introduced to the wells, and the color developed in proportion to the quantity of TNF-α bound in the initial step. The color development was halted, and the color intensity was quantified. Additionally, the Sandwich enzyme immunoassay is the test principle utilized for IL-6. The microtiter plates included in this preparation were pre-coated with an antibody that was specific to Rat IL6. A biotin-conjugated antibody specific to Rat IL6 was then added to the appropriate microtiter plate wells along with standards or samples. Subsequently, each microplate well was incubated with avidin conjugated to horseradish peroxidase (HRP). […] The addition of sulfuric acid solution terminated the enzyme–substrate reaction, and the color change was observed spectrophotometrically at a wavelength of 450 nm ± 10 nm. The concentration of Rat IL6 in the samples was subsequently determined by comparing the OD of the samples to the standard curve.
Blood was collected immediately following the decapitation of mice, performed in accordance with the institutional animal care and use committee (IACUC) guidelines. After decapitation, whole blood was allowed to flow freely and was collected directly into EDTA and heparinized tubes. The whole blood was centrifuged at 3000× g for 10 min at 4 °C, and the plasma was carefully collected and stored at –80 °C until further analysis.

IL-6 = assay: ELISA of serum IL-6 in carrageenan-treated mice; format: in vivo; conditions: 50 mg/kg; carrageenan-treated mice at 3 h
Procedure: Therefore, the anti-inflammatory activity of the tested compounds may hinge on their ability to suppress the pro-inflammatory TNF-α and IL-6 levels.
as §1, with “curve. […]” for “curve.”

[2] = stomach sections stained with H&E, 50 mg/kg

What does the source list for `Cc1ccc(-c2cc(C(F)(F)F)nn2-c2ccc(S(N)(=O)=O)cc2)cc1` [Celecoxib, celecoxib, reference compound]?
Percentage of inhibition of carrageenan-induced paw edema ([1]; 1 h): 0.31%; Percentage of inhibition of carrageenan-induced paw edema ([1]; 2 h): 44.88%; Percentage of inhibition of carrageenan-induced paw edema ([1]; 3 h): 56.14%; histological structure of the gastric mucosa (gastric mucosa; [2]): normal gastric mucosal histology; also recorded: normal histological structure of the gastric mucosa

`O=C(Cn1cnc2c(cnn2-c2ccccc2)c1=O)Nc1ccccc1` [Compound 5a, 2-(4-Oxo-1-Phenyl-1,4-Dihydro-5H-Pyrazolo[3,4-d]Pyrimidin-5-yl)-N-Phenyl Acetamide] was tested. Which “inhibitory activity on COX-1” value (COX-1) did it give?
Its value is “no inhibitory activity”.

What about the “inhibitory activity on COX-2” value (human recombinant COX-2) of the same molecule?
Its value is “no inhibitory activity”.

How did the “inhibitory activity on COX-1” value (COX-1) turn out when `O=C(Cn1cnc2c(cnn2-c2ccccc2)c1=O)Nc1ccc(Cl)cc1` [Compound 5b, N-(4-Chlorophenyl)-2-(4-Oxo-1-Phenyl-1,4-Dihydro-5H-Pyrazolo[3,4-d]Pyrimidin-5-yl) Acetamide] was run?
The value was “no inhibitory activity”.

What about the “inhibitory activity on COX-2” value (human recombinant COX-2) of the same molecule?
The value was “no inhibitory activity”.

`O=C(Cn1cnc2c(cnn2-c2ccccc2)c1=O)Nc1ccc(Br)cc1` [Compound 5c, N-(4-Bromophenyl)-2-(4-Oxo-1-Phenyl-1,4-Dihydro-5H-Pyrazolo[3,4-d]Pyrimidin-5-yl) Acetamide] was tested. Which “inhibitory activity on COX-1” value (COX-1) did it give?
Its value is “no inhibitory activity”.

And the IC50 (human recombinant COX-2)?
The IC50 was > 100000 nM.

And the “inhibitory activity on COX-2” value (human recombinant COX-2)?
Its value is “no inhibitory activity”.

Which results are given for `O=C(Cn1cnc2c(cnn2-c2ccccc2)c1=O)Nc1ccc([N+](=O)[O-])cc1` [Compound 5d, N-(4-Nitrophenyl)-2-(4-oxo-1-phenyl-1,4-dihydro-5H-pyrazolo[3,4-d]pyrimidin-5-yl) Acetamide]?
TNF-α levels in serum (TNF-α): No significant differences; Percentage of inhibition of carrageenan-induced paw edema ([1]; 1 h): 3.43%; Percentage of inhibition of carrageenan-induced paw edema ([1]; 2 h): 21.26%; Percentage of inhibition of carrageenan-induced paw edema ([1]; 3 h): 27.32%; histological structure of the gastric mucosa (gastric mucosa; stomach sections stained with H&E; 50 mg/kg): normal histological structure of the gastric mucosa; IC50 (COX-1): 14.1 ± 0.47 µM; COX1 %inh (COX-1; conc 0.01 (uM)): 0.25%; COX1 %inh (COX-1; conc 0.1 (uM)): 1.77%; COX1 %inh (COX-1; conc 1 (uM)): 8.07%; COX1 %inh (COX-1; conc 10 (uM)): 49.5%; COX1 %inh (COX-1; conc 100 (uM)): 76%; IC50 (human recombinant COX-2): 490 ± 17 nM; SI, in vitro COX-2 selectivity index (COX-1 IC50/COX-2 IC50) (human recombinant COX-2): 28.73; COX2 %inh (human recombinant COX-2; conc 0.01 (uM)): -402%; COX2 %inh (human recombinant COX-2; conc 0.1 (uM)): -301%; COX2 %inh (human recombinant COX-2; conc 1 (uM)): -167%; COX2 %inh (human recombinant COX-2; conc 10 (uM)): -15%; COX2 %inh (human recombinant COX-2; conc 100 (uM)): 76.6%

How did the “inhibitory activity on COX-1” value (COX-1) turn out when `Cc1ccccc1NC(=O)Cn1cnc2c(cnn2-c2ccccc2)c1=O` [Compound 5e, 2-(4-Oxo-1-Phenyl-1,4-Dihydro-5H-Pyrazolo[3,4-d]Pyrimidin-5-yl)-N-(o-Tolyl) Acetamide] was run?
The value was “no inhibitory activity”.

And the “inhibitory activity on COX-2” value (human recombinant COX-2)?
The value was “no inhibitory activity”.

`Cc1cccc(NC(=O)Cn2cnc3c(cnn3-c3ccccc3)c2=O)c1` [Compound 5f, 2-(4-Oxo-1-Phenyl-1,4-Dihydro-5H-Pyrazolo[3,4-d]Pyrimidin-5-yl)-N-(m-Tolyl) Acetamide] was tested. Which “inhibitory activity on COX-1” value (COX-1) did it give?
Its value is “no inhibitory activity”.

What about the “inhibitory activity on COX-2” value (human recombinant COX-2) of the same molecule?
The value was “no inhibitory activity”.

How did the “inhibitory activity on COX-1” value (COX-1) turn out when `Cc1ccc(NC(=O)Cn2cnc3c(cnn3-c3ccccc3)c2=O)cc1` [Compound 5g, 2-(4-Oxo-1-Phenyl-1,4-Dihydro-5H-Pyrazolo[3,4-d]Pyrimidin-5-yl)-N-(p-Tolyl) Acetamide] was run?
The value was “no inhibitory activity”.

What about the “inhibitory activity on COX-2” value (human recombinant COX-2) of the same molecule?
The value was “no inhibitory activity”.

`COc1ccccc1NC(=O)Cn1cnc2c(cnn2-c2ccccc2)c1=O` [Compound 5h, N-(2-Methoxyphenyl)-2-(4-Oxo-1-Phenyl-1,4-Dihydro-5H-Pyrazolo[3,4-d]Pyrimidin-5-yl) Acetamide] was tested. Which “inhibitory activity on COX-1” value (COX-1) did it give?
Its value is “no inhibitory activity”.

And the “inhibitory activity on COX-2” value (human recombinant COX-2)?
The value was “no inhibitory activity”.

What does the source list for `COc1ccc(NC(=O)Cn2cnc3c(cnn3-c3ccccc3)c2=O)cc1` [Compound 5i, N-(4-Methoxyphenyl)-2-(4-Oxo-1-Phenyl-1,4-Dihydro-5H-Pyrazolo[3,4-d]Pyrimidin-5-yl) Acetamide]?
inhibitory activity on COX-1 (COX-1): no inhibitory activity; inhibitory activity on COX-2 (human recombinant COX-2): no inhibitory activity

`O=C(Cn1cnc2c(cnn2-c2ccccc2)c1=O)Nc1ccc2ccccc2c1` [Compound 5j, N-(Naphthalen-2-yl)-2-(4-Oxo-1-Phenyl-1,4-Dihydro-5H-Pyrazolo[3,4-d]Pyrimidin-5-yl) Acetamide] was tested. Which “TNF-α levels in serum” value (TNF-α) did it give?
The value was “significantly reduced”.

And the “IL-6 levels in serum” value (IL-6)?
Its value is “significantly reduced; also recorded: highest inhibition of IL-6 levels, approaching normal levels”.

And the “Percentage of inhibition of carrageenan-induced paw edema” value ([1]; 1 h)?
Its value is 28.35%.

And the “Percentage of inhibition of carrageenan-induced paw edema” value ([1]; 2 h)?
Its value is 50.13%.

And the “Percentage of inhibition of carrageenan-induced paw edema” value ([1]; 3 h, 50 mg/kg)?
Its value is 62.41%.

What about the “histological structure of the gastric mucosa” value (gastric mucosa; [2]) of the same molecule?
The value was “preserved gastric tissue integrity; also recorded: intact gastric tissue; also recorded: normal histological structure of the gastric mucosa”.

And the IC50 (COX-1)?
Its IC50 is 6.4 ± 0.22 µM.

And the COX1 %inh (COX-1; conc 0.01 (uM))?
Its COX1 %inh is 1.32%.

What about the COX1 %inh (COX-1; conc 0.1 (uM)) of the same molecule?
Its COX1 %inh is 7.85%.

What about the COX1 %inh (COX-1; conc 1 (uM)) of the same molecule?
The COX1 %inh was 19.2%.

What about the COX1 %inh (COX-1; conc 10 (uM)) of the same molecule?
Its COX1 %inh is 57.9%.

What about the COX1 %inh (COX-1; conc 100 (uM)) of the same molecule?
Its COX1 %inh is 80.1%.

And the IC50 (human recombinant COX-2)?
Its IC50 is 398 ± 14 nM.

What about the “SI, in vitro COX-2 selectivity index (COX-1 IC50/COX-2 IC50)” value (human recombinant COX-2) of the same molecule?
The value was 16.09.

What about the COX2 %inh (human recombinant COX-2; conc 0.01 (uM)) of the same molecule?
Its COX2 %inh is -425%.

And the COX2 %inh (human recombinant COX-2; conc 0.1 (uM))?
The COX2 %inh was -285%.

And the COX2 %inh (human recombinant COX-2; conc 1 (uM))?
Its COX2 %inh is -103%.

And the COX2 %inh (human recombinant COX-2; conc 10 (uM))?
The COX2 %inh was 9.91%.

And the COX2 %inh (human recombinant COX-2; conc 100 (uM))?
Its COX2 %inh is 54.8%.

What does the source list for `CC(=O)c1ccc(NC(=O)Cn2cnc3c(cnn3-c3ccccc3)c2=O)cc1` [Compound 5l, N-(4-Acetylphenyl)-2-(4-Oxo-1-Phenyl-1,4-Dihydro-5H-Pyrazolo[3,4-d]Pyrimidin-5-yl) Acetamide]?
inhibitory activity on COX-1 (COX-1): no inhibitory activity; inhibitory activity on COX-2 (human recombinant COX-2): no inhibitory activity

Which results are given for `COc1ccc2c(c1)c(CC(=O)O)c(C)n2C(=O)c1ccc(Cl)cc1` [Indomethacin, indomethacin, reference compound]?
Percentage of inhibition of carrageenan-induced paw edema ([1]; 1 h): 15.89%; Percentage of inhibition of carrageenan-induced paw edema ([1]; 2 h): 29.13%; Percentage of inhibition of carrageenan-induced paw edema ([1]; 3 h, 50 mg/kg): 32.33%; Percentage of inhibition of carrageenan-induced paw edema ([1]; 3 h, listed as indomethacin, 50 mg/kg): 32.33%
